Assay results from patent publication US9849198B2, “Discrete imaging of hepatic oxidative and nitrosative stress with two-channel nanoparticles for in vivo drug safety screening” (The Board of Trustees of the Leland Stanford Junior …, priority 2013, dated 2017).

Legend:
liver H2O2 = assay: Extension of H2O2 detection window by readministration of CF-SPN after APAP; type: in vivo, mice; conditions: APAP 300 mg/kg i.p.
Protocol: FIG. 10A illustrates extension luminescent images of the time course of H2O2 detection after drug challenge by readministration of CF-SPN. Mice were administered 300 mg/kg APAP (top row, 1-4) or saline (bottom row, 5-8) i.p., followed by the administration of 0.8 mg CF-SPN i.v. After 25 min, CF-NP was readministered i.v.
FIG. 10B is a graph illustrating the quantitation of liver luminescence. Black arrow in indicates CF-SPN readministration. Numbers on images correspond to time points indicated on plot.
This elevation in luminescence from APAP overdose was sustained over the time course of imaging (FIG. 3B). However, due to the baseline consumption of CPPO that had been observed in mouse serum (FIG. 7B), the ability to extend the H2O2 detection window with the re-administration of CF-SPN was assessed (FIG. 10). The re-administration of CF-SPN following treatment with a hepatotoxic dose of APAP (300 mg/kg) produced an elevated luminescence signal having approximately 50% of the intensity of the initial CF-SPN injection.

liver tissue = assay: Histology (H&E), nitrotyrosine immunohistochemistry and TUNEL staining of liver after drug challenge; type: in vivo, mice
Protocol: The correlation of an imaging biomarker with histological changes in the tissue of interest is desirable to validate the use of a biomarker for indicating an intended pathological outcome. To this end, histological and immunohistochemical analysis of liver tissue was performed on mice 45 min (FIGS. 3D and 11) and 180 min (FIGS. 3E and 11) following treatment with the indicated doses of APAP.
Animals were imaged longitudinally for the indicated lengths of time, warmed until observable sternal recumbence, and then returned to their cage. Animals were euthanized 180 min following drug treatment, and their livers were resected and placed into buffered formalin for histological examination. A separate set of animals was fasted, treated with drug, and their livers were resected after euthanasia to provide tissues for histological examination 45 min following drug treatment.
All tissues were embedded in paraffin prior to 10 micron sectioning. Histology samples were stained by hematoxylin and eosin under standard protocols. Immunohistochemistry samples were processed using an anti-nitrotyrosine primary antibody (Life Technologies Inc., NY, USA) at 1:500 dilution, with color development according to the protocol described in the DAKO LSB+ kit. Endogenous peroxidases were quenched prior to processing. TUNEL staining was performed according to the manufacturer instructions using the ApopTag Plus Peroxidase In Situ Apoptosis Kit (EMD Millipore, Mass., USA). All images were acquired using an Olympus IX2-UCB (Olympus America Inc., PA, USA) inverted fluorescence microscope equipped with a Nuance (CRi Inc., MA, USA) hyperspectral camera capable of brightfield full color imaging.

[1] = system: drug-induced hepatic oxidative and nitrosative stress; assay: Real-time in vivo CF-SPN imaging of drug-induced hepatotoxicity (chemiluminescence and fluorescence index); design: species or system female nude mice
Protocol: Female nude mice were administered a given dose of APAP intraperitoneally, anesthetized, and fitted with tail vein catheters.
All animal experiments involved 8-10 week old female nude mice (Charles River Laboratories International, Inc., Mass., USA). Animals were fasted for 8 h prior to imaging for all drug-induced hepatotoxicity imaging. Animals were treated intraperitoneally with sterilized saline solutions of APAP (10 mg/mL) or INH (10 mg/mL) and were then anesthetized with intraperitoneal injection of 100 mg/kg ketamine and 10 mg/mL xylazine. A tail vein catheter was inserted, and the mice were placed in an IVIS® Spectrum imaging system. Fifteen minutes after the administration of drug, 0.8 mg CF-SPN was injected intravenously through the tail vein catheter, and imaging began immediately. Luminescence images were acquired for 3 min with an open filter, and fluorescence images were acquired using autoexposure with excitation of 580±10 nm, and emission at both 680±10 nm and 820±10 nm.
Luminescence data was processed using Living Image software (v. 4.3.1, Perkin Elmer, Mass., USA) for all experiments, in addition to fluorescence data for biodistribution experiments. For fluorescent ratiometric mapping of liver intensity, image scale bars were normalized, with the scale set to a red color scheme.
Fluorescence images without photograph overlay were exported as TIFF, read into Matlab® (v. 8.0.0.783, The MathWorks Inc., CO, USA) where the percent difference between the fluorescence intensity at 680 nm and 820 nm was mapped for the liver region of interest. To plot the fluorescence index (FL index) over time, fluorescence intensities of the liver region of interest were extracted for images acquired with emission at 680 nm and at 820 nm using Living Image software. The intensity values, measured in units of radiance efficiency, were exported to Excel® where the percent difference in emission intensity at 680 nm and 820 nm was calculated. Finally, the FL index was calculated as the ratio of the percent difference of drug treated animals to that of control animals. All statistical analyses were performed using Prism software (v. 5.0c, GraphPad Software Inc., CA, USA).

[2] = system: drug-induced liver production of H2O2; conditions: APAP 300 mg/kg i.p.; 0.2 mg luminol i.v., dose equal to CPPO in 0.8 mg CF-SPN
[3] = system: APAP-induced hepatic ROS and RNS production; assay: In vivo monitoring of remediation of APAP-induced hepatotoxicity with enzyme inhibitors and antioxidant scavengers; design: species or system mice; conditions: for FL index / ONOO/HOCl production in liver / luminescence emission / H2O2 production in liver: APAP 300 mg/kg i.p. with GSH 200 mg/kg i.v., 1-ABT 2×100 mg/kg i.p. or t-1,2-DCE 0.2 mg/kg i.p.
Protocol: To this end, the effects of inhibitors of APAP bioactivation on in vivo hepatic ROS and RNS production were evaluated using the CF-SPNs of the disclosure (FIGS. 4A, 4C, and 4D).
Without wishing to be bound by any one theory, a mechanism for APAP bioactivation involves CYP450-mediated oxidation to an iminoquinone, N-acetylparaquinonimine (NAPQI), which can bind directly to cellular proteins to induce mitochondrial dysfunction and the production of ONOO, or undergo reduction by molecular oxygen to form superoxide (O2.^−) and H2O2 (FIG. 4B).
For inhibitor studies, animals were treated with 200 mg/kg of GSH intravenously 5 min prior to drug treatment (James et al., (2003) Toxicol. Sci. 75: 458-467), with 0.2 mg/kg t-1,2-DCE intraperitoneally 2 h prior to drug treatment (Jackson et al., (2000) Toxicol. Sci. 55: 266-273), or with 100 mg/kg 1-ABT intraperitoneally 12 and 24 h prior to drug treatment (as described in Jackson et al., (2000) Toxicol. Sci. 55: 266-273).

[4] = anti-tuberculosis chemotherapy; cited from earlier work
[5] = 200, 100, 50 mg/kg i.p., 0.8 mg CF-SPN i.v.

CC(=O)Nc1ccc(O)cc1 [APAP, acetaminophen]
time after administration within which a significant decrease in H2O2 production occurs (liver H2O2): ≤ 60 min
foci positive for protein nitrotyrosyl residues or TUNEL (DNA fragmentation) (liver tissue; 45 min after drug administration): no foci positive
histological changes in liver tissue (hematoxylin/eosin) (liver tissue; 45 min after drug challenge, any dose level (300, 150, 75 mg/kg)): No histological changes
immunohistochemical and histological findings in liver (liver tissue; 180 min after administration, 300 mg/kg): significant protein nitrotyrosyl and TUNEL-positive foci, as well as hepatocellular degeneration characteristic of APAP-induced oncotic necrosis
immunohistochemical or histological changes to liver tissue (liver tissue; lower doses (150 mg/kg, 75 mg/kg)): did not induce immunohistochemical or histological changes to liver tissue
liver chemiluminescence (H2O2) ([1]; 150 mg/kg and 75 mg/kg i.p., 0.8 mg CF-SPN i.v.): only baseline luminescence similar to untreated mice
liver chemiluminescence (H2O2) ([1]; 300 mg/kg i.p., by 18 min after start of imaging, 0.8 mg CF-SPN i.v.): significant enhancement in signal
elevation in percent difference between fluorescence emission at 680 nm and 820 nm (ONOO/HOCl) ([1]; 53 min after CF-SPN administration, doses 300, 150, 75 mg/kg i.p.): only observed for mice receiving 300 mg/kg APAP
timing of increase in ONOO/HOCl generation (FL index) ([1]; APAP overdose 300 mg/kg i.p.): later than the generation of H2O2

Nc1cccc2c(=O)[nH][nH]c(=O)c12 [Luminol, luminol]
luminescent signal from liver after APAP overdose [2]: did not produce any detectable luminescent signal

Cl/C=C/Cl [t-1,2-DCE, trans-1,2-dichloroethylene]
FL index / ONOO/HOCl production in liver [3]: suppressed ONOO/HOCl production to the same extent
luminescence emission / H2O2 production in liver [3]: completely prevent H2O2 production

NNC(=O)c1ccncc1 [INH, isoniazid]
severity of liver tissue degradation (histology, H&E) (liver tissue; 180 min after drug administration, 200, 100, 50 mg/kg i.p.): dose-dependent increase in the severity of liver tissue degradation
dose dependence of H2O2 production (chemiluminescence) [1, 5]: threshold dose-type production
dose dependence of ONOO/HOCl production (fluorescence index) [1, 5]: dose-dependent enhancement
kinetics of oxidative stress compared with APAP ([1]; i.p., chemiluminescent channel): more short-lived oxidative burst
kinetics of nitrosative stress compared with APAP ([1]; i.p., fluorescent channel): more rapidly developed and sustained induction of nitrosative stress
patients with associated hepatotoxicity [4]: ≤ 25%

Nn1nnc2ccccc21 [1-ABT, 1-aminobenzotriazole]
duration of H2O2 production after CF-SPN administration ([3]; APAP 300 mg/kg i.p. with 1-ABT 2×100 mg/kg i.p.): less than 20 min
FL index / ONOO/HOCl production in liver [3]: suppressed ONOO/HOCl production to the same extent
luminescence emission / H2O2 production in liver [3]: intense but short-lived

N[C@@H](CCC(=O)N[C@@H](CS)C(=O)NCC(=O)O)C(=O)O [GSH, glutathione]
FL index / ONOO/HOCl production in liver [3]: reduced level of H2O2 and ONOO/HOCl production relative to mice receiving APAP alone, but still elevated
luminescence emission / H2O2 production in liver [3]: reduced level of H2O2 and ONOO/HOCl production relative to mice receiving APAP alone, but still elevated
